# From ChEMBL document CHEMBL3045967, “Discovery of imidazole glycerol phosphate dehydratase inhibitors through 3-D database searching” (Bioorg Med Chem Lett, 2002)
# Activity calls are given as the source filed them. The calls are words filed in the database; no cut-off is given here.
# Molecular target: Histidine biosynthesis bifunctional protein HisB (Escherichia coli O26:H11 str. CFSAN001629, UniProt P06987)
# Assay: (§1) Inhibition of Escherichia coli imidazoleglycerol phosphate dehydratase using imidazole glycerol phosphate as substrate incubated for 30 min prior to substrate addition measured for 16 min by spectrophotometric analysis
row,Compound,IC50 [µM]
1,CCOC(=O)c1[nH]c(C=O)c(C)c1C,17.6
2,CCOC(=O)c1[nH]c(C=O)cc1C,9.2
3,CCc1c(C=O)[nH]c(C(=O)OCc2ccccc2)c1C,24
4,Cc1c(C=O)[nH]c(C(=O)OCc2ccccc2)c1C,8.9
5,CCOC(=O)CCc1c(C(=O)OCC)[nH]c(C=O)c1CC(=O)OCC,12.6

# The remaining lines, values ahead:
row,IC50 [µM],Compound
1,8.3,COC(=O)c1[nH]c(C=O)c(C(=O)OC)c1C(C)C
2,5.6,CCOC(=O)c1[nH]c(C=O)c(C(=O)OCC)c1CC
3,5.1,CCOC(=O)c1[nH]c(C=O)c(C(=O)OCC)c1C
4,4,O=Cc1[nH]c(C(=O)OCc2ccccc2)c(Cc2ccccc2)c1Cc1ccccc1
5,7.1,Cc1c(C=O)[nH]c(C=O)c1C

# Molecular target: Histidine biosynthesis bifunctional protein HisB (Escherichia coli O26:H11 str. CFSAN001629) (UniProt P06987)
# Assay: as §1
row,inhibition,Compound
1,inactive,CCOC(=O)c1[nH]c(C)c(C(=O)OC)c1C
